Literature values as cited in PubChem BioAssay AID1259409 (Chemical Carcinogenesis Research Information System (CCRIS), 2018).

Test system: rodent chemically induced tumor inhibition, incidence and multiplicity
Experiment: CCRIS tumor inhibitor studies
Conditions: Dose [Inhibitor]: 0, Route [Inhibitor]: DERMAL, Species: MOUSE, Strain/Sex: SENCAR

Compound: CC(C)=CCOc1c2occc2cc2ccc(=O)oc12
- tumour outcome (control, treated, inhibition, significance) (Carcinogen: 7,12-DIMETHYLBENZ[A]ANTHRACENE, 57-97-6, 400 NMOL 1/WK FOR 45 WK APPLIED 5 MIN PRIOR TO EACH CARCINOGEN DOSE (STUDY DURATION: 45 WK), Target Tissue: Type of Lesion: SKIN: PAPILLOMA, Dose [Carcinogen]: 50 NMOL 1/WK FOR 45 WK, Promoter: NONE USED): 97%, 60%, 38%, p<0.05
- tumour outcome (control, treated, inhibition, significance) (Carcinogen: 7,12-DIMETHYLBENZ[A]ANTHRACENE, 57-97-6, 400 NMOL ONCE APPLIED 5 MIN PRIOR TO CARCINOGEN DOSE (STUDY DURATION: 25 WK), Target Tissue: Type of Lesion: SKIN: PAPILLOMA, Dose [Carcinogen]: 10 NMOL ONCE, Promoter: 12-O-TETRADECANOYLPHORBOL-13-ACETATE, 16561-29-8): 93%, 93%, 0%, not significant
- tumour outcome (control, treated, inhibition, significance) (Carcinogen: 7,12-DIMETHYLBENZ[A]ANTHRACENE, 57-97-6, 800 NMOL ONCE APPLIED 5 MIN PRIOR TO CARCINOGEN DOSE (STUDY DURATION: 25 WK), Target Tissue: Type of Lesion: SKIN: PAPILLOMA, Dose [Carcinogen]: 200 NMOL ONCE, Promoter: 12-O-TETRADECANOYLPHORBOL-13-ACETATE, 16561-29-8): 93%, 75%, 19%, not significant
- tumour outcome (control, treated, inhibition, significance) (Carcinogen: 7-12-DIMETHYLBENZ[A]ANTHRACENE, 57-97-6, 400 NMOL 1/WK FOR 45 WK APPLIED 5 MIN PRIOR TO EACH CARCINOGEN DOSE (STUDY DURATION: 45 WK), Target Tissue: Type of Lesion: SKIN: CARCINOMA, Dose [Carcinogen]: 50 NMOL 1/WK FOR 45 WK): 90%, 53%, 41%, not calculated
- tumour outcome (control, treated, inhibition, significance) (Carcinogen: 7-12-DIMETHYLBENZ[A]ANTHRACENE, 57-97-6, 800 NMOL 1/WK FOR 45 WK APPLIED 5 MIN PRIOR TO EACH CARCINOGEN DOSE (STUDY DURATION: 45 WK), Target Tissue: Type of Lesion: SKIN: CARCINOMA, Dose [Carcinogen]: 50 NMOL 1/WK FOR 45 WK): 90%, 37%, 59%, not calculated
- tumour outcome (control, treated, inhibition, significance) (Carcinogen: 7-12-DIMETHYLBENZ[A]ANTHRACENE, 57-97-6, 800 NMOL 1/WK FOR 45 WK APPLIED 5 MIN PRIOR TO EACH CARCINOGEN DOSE (STUDY DURATION: 45 WK), Target Tissue: Type of Lesion: SKIN: PAPILLOMA, Dose [Carcinogen]: 50 NMOL 1/WK FOR 45 WK): 97%, 53%, 45%, p<0.05
- tumour outcome (control, treated, inhibition, significance) (Carcinogen: BENZO[A]PYRENE, 50-32-8, 800 NMOL ONCE APPLIED 5 MIN PRIOR TO CARCINOGEN DOSE (STUDY DURATION: 25 WK), Target Tissue: Type of Lesion: SKIN: PAPILLOMA, Dose [Carcinogen]: 200 NMOL ONCE, Promoter: 12-O-TETRADECANOYLPHORBOL-13-ACETATE, 16561-29-8): 92%, 92%, 0%, not significant
- tumour outcome (control, treated, inhibition, significance) (Carcinogen: BENZO[A]PYRENE, 50-32-8, 1600 NMOL ONCE APPLIED 5 MIN PRIOR TO CARCINOGEN DOSE (STUDY DURATION: 25 WK), Target Tissue: Type of Lesion: SKIN: PAPILLOMA, Dose [Carcinogen]: 200 NMOL ONCE, Promoter: 12-O-TETRADECANOYLPHORBOL-13-ACETATE, 16561-29-8): 92%, 85%, 8%, not significant
